Test results from patent publication US20050169948A1, “Method and compositions for treatment of acne vulgaris and acne rosacea” (priority 2004, published 2005).

How the values were obtained:
[1] = test system: skin; details: concentrations 1.0% to 10%
[2] = test system: acne vulgaris or acne rosacea; experiment: Clinical studies of topical formulations in acne patients, compared to placebo or to nicotinamide alone; type: in vivo, human; details: over one thousand acne patients

| Structure (SMILES) | irritation on continuous or regular topical application [1] | efficacy in treating acne vulgaris or acne rosacea compared to placebo [2] |
| --- | --- | --- |
| O=C(O)c1cccnc1 [nicotinic acid] | too irritating | – |
| NC(=O)c1cccnc1 [nicotinamide] | – | modestly effective |
